Results: PubChem BioAssay (NCI)
Where “and” joins values, the source holds several entries; their conditions need not be identical. Equal entries are not always repeated.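 Five concentrations, 48 hours, 96-well plates. The concentration for 50% growth inhibition is given as GI50. TGI: concentration producing complete growth inhibition.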

Legend:
Assay in all cases: inhibition of tumour cell growth, NCI panel, 48 h
RPMI-8226 leukemia = test system: RPMI-8226 leukemia
IGROV1 ovarian = test system: IGROV1 ovarian
SK-OV-3 ovarian = test system: SK-OV-3 ovarian
MALME-3M melanoma = test system: MALME-3M melanoma
CAKI-1 renal = test system: CAKI-1 renal
MCF7 breast = test system: MCF7 breast
PC-3 prostate = test system: PC-3 prostate
MDA-N = test system: MDA-N
NCI-H23 lung = test system: NCI-H23 lung
UACC-257 melanoma = test system: UACC-257 melanoma

## COc1cc(CNc2nc3c(NC(C)=O)cc(C(F)(F)F)cc3nc2-c2ccccc2)cc(OC)c1OC
RPMI-8226 leukemia
  TGI: > 100 µM
IGROV1 ovarian
  TGI: > 100 µM
SK-OV-3 ovarian
  TGI: > 100 µM
MALME-3M melanoma
  TGI: > 100 µM
CAKI-1 renal
  TGI: > 100 µM

## CCN(CCCl)c1cc(CN(C)C)cc(NC(=O)c2ccc(C(=O)Nc3cccc(N(CCCl)NN)c3)cc2)c1
MCF7 breast
  TGI: 0.171 µM
PC-3 prostate
  TGI: 0.0661 µM
MDA-N
  TGI: 0.169 µM
RPMI-8226 leukemia
  TGI: 31.8 µM
IGROV1 ovarian
  TGI: 0.078 µM
SK-OV-3 ovarian
  TGI: 13.3 µM
MALME-3M melanoma
  TGI: 0.0939 µM
NCI-H23 lung
  TGI: 0.626 µM
CAKI-1 renal
  TGI: 0.203 µM

## CN(Cc1ccccc1)C(=S)S
MCF7 breast
  TGI: > 100 µM
MDA-N
  TGI: > 100 µM
IGROV1 ovarian
  TGI: > 100 µM
SK-OV-3 ovarian
  TGI: > 100 µM
UACC-257 melanoma
  TGI: > 100 µM
MALME-3M melanoma
  TGI: > 100 µM
NCI-H23 lung
  TGI: > 100 µM
CAKI-1 renal
  TGI: > 100 µM

## CCOC(=O)CCC(C(=O)OCC)n1nnc2cc(Nc3c(C)[n+]([O-])c4cc(Cl)ccc4[n+]3[O-])ccc21 (configuration not stated)
MCF7 breast
  TGI: 80 µM
PC-3 prostate
  TGI: > 100 µM
MDA-N
  TGI: > 100 µM
RPMI-8226 leukemia
  TGI: > 100 µM
IGROV1 ovarian
  TGI: > 100 µM
SK-OV-3 ovarian
  TGI: > 100 µM
UACC-257 melanoma
  TGI: > 100 µM
MALME-3M melanoma
  TGI: > 100 µM
NCI-H23 lung
  TGI: > 100 µM
CAKI-1 renal
  TGI: > 100 µM

## NCC1OC(OC2C(N)CC(N)C(O)C2OC2OC(CO)C(O)C2O)C(N)C(O)C1O (configuration not stated)
MCF7 breast
  TGI: > 100 µM
PC-3 prostate
  TGI: > 100 µM
MDA-N
  TGI: > 100 µM
RPMI-8226 leukemia
  GI50: 48 µM and > 100 µM
  TGI: > 100 µM
IGROV1 ovarian
  TGI: > 100 µM
SK-OV-3 ovarian
  TGI: > 100 µM
UACC-257 melanoma
  TGI: > 100 µM
MALME-3M melanoma
  TGI: > 100 µM
NCI-H23 lung
  TGI: > 100 µM
CAKI-1 renal
  TGI: > 100 µM

## N=C(N)c1ccc(N=Nc2c(O)c(C(=O)Nc3ccccc3)cc3ccccc23)cc1
MCF7 breast
  TGI: 41.7 µM
PC-3 prostate
  TGI: > 89.2 µM
MDA-N
  TGI: > 100 µM
RPMI-8226 leukemia
  TGI: 77.7 µM
IGROV1 ovarian
  TGI: > 74.6 µM
SK-OV-3 ovarian
  TGI: > 90.8 µM
UACC-257 melanoma
  TGI: > 100 µM
MALME-3M melanoma
  TGI: 97.3 µM
NCI-H23 lung
  TGI: 76.1 µM
CAKI-1 renal
  TGI: > 100 µM

## COC(=O)c1sc2c(Cl)c(Cl)sc2c1Cl
MCF7 breast
  TGI: > 100 µM
PC-3 prostate
  TGI: > 100 µM
MDA-N
  TGI: > 100 µM
IGROV1 ovarian
  TGI: > 100 µM
SK-OV-3 ovarian
  TGI: > 100 µM
UACC-257 melanoma
  TGI: > 100 µM
MALME-3M melanoma
  TGI: > 100 µM
NCI-H23 lung
  TGI: > 100 µM
CAKI-1 renal
  TGI: > 100 µM

## C/C(=C\C(=O)O)C(=O)N(C)c1ccccc1I
MCF7 breast
  TGI: > 100 µM
PC-3 prostate
  TGI: > 100 µM
MDA-N
  TGI: > 100 µM
RPMI-8226 leukemia
  TGI: > 100 µM
SK-OV-3 ovarian
  TGI: > 100 µM
UACC-257 melanoma
  TGI: > 100 µM
MALME-3M melanoma
  TGI: > 100 µM
NCI-H23 lung
  TGI: > 100 µM
CAKI-1 renal
  TGI: > 100 µM

## C=C(C)C1CCC2(C)C1CCC1(C)C2CCC2C3(C)C4OC(OC4=O)C(C)(C)C3CCC21C (configuration not stated)
MCF7 breast
  TGI: > 100 µM
PC-3 prostate
  TGI: > 100 µM
MDA-N
  TGI: > 100 µM
RPMI-8226 leukemia
  TGI: > 100 µM
IGROV1 ovarian
  TGI: > 100 µM
SK-OV-3 ovarian
  TGI: > 100 µM
UACC-257 melanoma
  TGI: > 100 µM
NCI-H23 lung
  TGI: > 100 µM
CAKI-1 renal
  TGI: > 100 µM

## c1csc(-c2cc(-c3ccsc3)cs2)c1
MCF7 breast
  TGI: > 100 µM
PC-3 prostate
  TGI: > 100 µM
MDA-N
  TGI: > 100 µM
RPMI-8226 leukemia
  TGI: > 100 µM
IGROV1 ovarian
  TGI: > 100 µM
SK-OV-3 ovarian
  TGI: > 100 µM
UACC-257 melanoma
  TGI: > 100 µM
NCI-H23 lung
  TGI: 93.8 µM
CAKI-1 renal
  TGI: > 100 µM

## Cc1cc(C)c(C2=NO[C@@H]3[C@H]2C(=O)C=C2N(Cc4ccccc4)CCO[C@@]23O)c(C)c1
MCF7 breast
  TGI: > 100 µM
RPMI-8226 leukemia
  TGI: > 100 µM
IGROV1 ovarian
  TGI: > 100 µM
SK-OV-3 ovarian
  TGI: > 100 µM
UACC-257 melanoma
  TGI: > 100 µM
MALME-3M melanoma
  TGI: > 100 µM
NCI-H23 lung
  TGI: > 100 µM
CAKI-1 renal
  TGI: > 100 µM

## COc1cc(C2C3=C(NC(=O)C2C#N)c2ccc4ccccc4c2OCC3)cc(OC)c1OC (configuration not stated)
MCF7 breast
  TGI: > 100 µM
PC-3 prostate
  TGI: > 100 µM
RPMI-8226 leukemia
  TGI: > 100 µM
IGROV1 ovarian
  TGI: 36.9 µM
SK-OV-3 ovarian
  TGI: 62.4 µM
UACC-257 melanoma
  TGI: > 100 µM
MALME-3M melanoma
  TGI: 72.5 µM
NCI-H23 lung
  TGI: > 100 µM
CAKI-1 renal
  TGI: 45.7 µM

## CC1=NN(c2cc(Cl)c(S(=O)(=O)O)cc2Cl)C2(C1)C(Cl)C(=O)N2c1nc2ccccc2s1 (configuration not stated)
MCF7 breast
  TGI: > 100 µM
PC-3 prostate
  TGI: > 100 µM
MDA-N
  TGI: > 100 µM
RPMI-8226 leukemia
  TGI: > 100 µM
IGROV1 ovarian
  TGI: > 100 µM
UACC-257 melanoma
  TGI: > 100 µM
MALME-3M melanoma
  TGI: > 100 µM
NCI-H23 lung
  TGI: > 100 µM
CAKI-1 renal
  TGI: > 100 µM

## CCCCCCCCCCCCCCCCOC[C@H](COC(c1ccccc1)(c1ccccc1)c1ccccc1)O[P+](=S)OC (some centres not stated)
MCF7 breast
  TGI: > 100 µM
PC-3 prostate
  TGI: > 100 µM
MDA-N
  TGI: > 100 µM
RPMI-8226 leukemia
  TGI: > 100 µM
IGROV1 ovarian
  TGI: > 100 µM
SK-OV-3 ovarian
  TGI: > 100 µM
UACC-257 melanoma
  TGI: > 100 µM
NCI-H23 lung
  TGI: > 100 µM
CAKI-1 renal
  TGI: > 100 µM

## CC1CC(C)(C)CC(OCCN2CCCCC2)(c2ccccc2)C1 (configuration not stated)
MCF7 breast
  TGI: 26.4 µM
PC-3 prostate
  TGI: 25.6 µM
RPMI-8226 leukemia
  TGI: 20.3 µM
IGROV1 ovarian
  TGI: 27.3 µM
SK-OV-3 ovarian
  TGI: 28.3 µM
UACC-257 melanoma
  TGI: 24.2 µM
MALME-3M melanoma
  TGI: 23.4 µM
NCI-H23 lung
  TGI: 32.6 µM
CAKI-1 renal
  TGI: 25.5 µM

## O=c1[nH]c(NCCCCCO)nc2nc[nH]c12
PC-3 prostate
  TGI: > 100 µM
MDA-N
  TGI: > 100 µM
RPMI-8226 leukemia
  TGI: > 100 µM
IGROV1 ovarian
  TGI: > 100 µM
UACC-257 melanoma
  TGI: > 100 µM
MALME-3M melanoma
  TGI: > 100 µM
NCI-H23 lung
  TGI: > 100 µM
CAKI-1 renal
  TGI: > 100 µM

## N#CC(c1cc(Cl)ncn1)c1nc2cc(C(F)(F)F)ccc2s1 (configuration not stated)
MDA-N
  TGI: 15.7 µM
RPMI-8226 leukemia
  TGI: > 100 µM
IGROV1 ovarian
  TGI: 20.3 µM
SK-OV-3 ovarian
  TGI: 53.7 µM
UACC-257 melanoma
  TGI: > 100 µM
MALME-3M melanoma
  TGI: 17.5 µM
NCI-H23 lung
  TGI: 6.97 µM
CAKI-1 renal
  TGI: > 100 µM

## N#Cc1nc(-c2ccsc2)oc1N
MCF7 breast
  TGI: > 100 µM
PC-3 prostate
  TGI: > 100 µM
MDA-N
  TGI: > 100 µM
RPMI-8226 leukemia
  TGI: > 100 µM
IGROV1 ovarian
  TGI: > 100 µM
SK-OV-3 ovarian
  TGI: > 100 µM
UACC-257 melanoma
  TGI: > 100 µM
CAKI-1 renal
  TGI: > 100 µM

## CC(=O)CCN1CC2CN=NC2(C#N)C1 (configuration not stated)
MCF7 breast
  TGI: > 100 µM
PC-3 prostate
  TGI: > 100 µM
MDA-N
  TGI: > 100 µM
RPMI-8226 leukemia
  GI50: > 100 µM
  TGI: > 100 µM
IGROV1 ovarian
  TGI: > 100 µM
SK-OV-3 ovarian
  GI50: > 100 µM
  TGI: > 100 µM
UACC-257 melanoma
  TGI: > 100 µM
MALME-3M melanoma
  TGI: > 100 µM
NCI-H23 lung
  TGI: > 100 µM

## Nc1c(-c2ccccc2)c2ccc([N+](=O)[O-])cc2c(=O)n1-c1cccc(C(=O)O)c1
MCF7 breast
  TGI: > 100 µM
PC-3 prostate
  TGI: > 100 µM
MDA-N
  TGI: > 100 µM
RPMI-8226 leukemia
  TGI: > 100 µM
IGROV1 ovarian
  TGI: > 100 µM
SK-OV-3 ovarian
  TGI: > 100 µM
UACC-257 melanoma
  TGI: > 100 µM
NCI-H23 lung
  TGI: > 100 µM
CAKI-1 renal
  TGI: > 100 µM

## COc1cc(/C=C2\C(=O)N(c3ccc(Cl)cc3)C(c3ccccc3)S2(=O)=O)cc(OC)c1OC (configuration not stated)
MCF7 breast
  TGI: > 63.6 µM
PC-3 prostate
  TGI: > 100 µM
MDA-N
  TGI: 20.1 µM
RPMI-8226 leukemia
  TGI: > 100 µM
SK-OV-3 ovarian
  TGI: > 100 µM
UACC-257 melanoma
  TGI: > 100 µM
MALME-3M melanoma
  TGI: > 100 µM
NCI-H23 lung
  TGI: > 100 µM
CAKI-1 renal
  TGI: > 100 µM

## CCOC(=O)CC1(N)CC2c3ccccc3OC(=O)C2C(=O)N1 (configuration not stated)
PC-3 prostate
  TGI: > 100 µM
MDA-N
  TGI: > 100 µM
RPMI-8226 leukemia
  TGI: > 100 µM
IGROV1 ovarian
  TGI: > 100 µM
UACC-257 melanoma
  TGI: > 100 µM
MALME-3M melanoma
  TGI: > 100 µM
NCI-H23 lung
  TGI: > 100 µM
CAKI-1 renal
  TGI: > 100 µM

## Oc1ccccc1/C=N/c1nc(-c2ccccc2)cs1
MCF7 breast
  GI50: 14.1 µM
  TGI: 40.8 µM
PC-3 prostate
  GI50: 53.7 µM
  TGI: > 100 µM
RPMI-8226 leukemia
  GI50: 27.5 µM
  TGI: > 100 µM
IGROV1 ovarian
  GI50: > 100 µM
  TGI: > 100 µM
SK-OV-3 ovarian
  GI50: > 100 µM
  TGI: > 100 µM
UACC-257 melanoma
  GI50: 44.3 µM
  TGI: > 100 µM
MALME-3M melanoma
  GI50: 47.2 µM
  TGI: > 100 µM
NCI-H23 lung
  GI50: 18.4 µM
  TGI: 41.8 µM
CAKI-1 renal
  GI50: 22.5 µM
  TGI: 62.6 µM
